Experimental data as given in patent US20100137346A1, “DESFE[…] ACTINIDE DEC[…]” (priority 2006, published 2010).
Read-outs that look alike come from different tables or passages of the source.

Assay: Chelator-induced uranium excretion (urine + bile, 24 h) in bile duct-cannulated rat model
Assay type: in vivo
Protocol: Desferrithiocin Analogue Induced Excretion of Uranium. In order to compare results with previous chelator-induced iron excretion data, the uranium clearance studies were carried out in a bile duct-cannulated rat model. The animals were given uranyl acetate dihydrate SC at a dose of 5 mg/kg (the actual dose of uranium is 2.8 mg/kg). Bile and urine samples were collected for 24 hours after dosing. Kidneys were removed from selected animals and tissue uranium concentration measured. At least three animals were utilized in each experimental group. Data from two separate control studies (uranyl acetate/ no chelator) have now been combined for a total of 14 control animals. All uranium concentrations were measured using ICPMS. The data are reported as the total quantity of uranium excreted [urine +bile]; the mode of excretion [urine/bile] is also given. In addition the percentage of the administered dose of uranium cleared and chelator-induced uranium excretion vs the controls is also given. Four positive controls were evaluated: DTPA (13, Table 1) given as its trisodium calcium salt, DFO (14), N,N′-bis(2hydroxybenzyl)ethylenediamine-N,N′-diacetic acid, monosodium salt (NaHBED, 15) and the hydroxypyridone CP94 (16) shown to bind uranium [Pashalidis, et al., Effective complex formation in the interaction of 1,2-dimethyl-3-hydroxypyrid-4-one (Deferiprone or L1) with uranium(VI), Journal of Radioanalytical and Nuclear Chemistry 1999; 242:181-184.] The total metal cleared after 24 h in control rats was 10% of the administered dose. When DTPA, 13, was given IP or PO at 300 μmol/kg immediately after uranium, the excretion was 17% and 8% of the administered dose respectively (p>0.05). However, when the drug was given IP at a dose of 600 μmol/kg immediately post-metal, the uranium excretion was significant, 20% (p<0.005). This is consistent with previously published data using a similar animal model.[Domingo, et al., Comparative effects of the chelators sodium 4,5-dihydroxybenzene-1,3-disulfonate (Tiron) and diethylenetriaminepentaacetic acid (DTPA) on acute uranium nephrotoxicity in rats, Toxicology 1997; 118:49-59] DFO (14) and CP94 (16) given IP immediately post uranyl acetate were ineffective.
Desferrithiocin Analogue-Induced Excretion of Uranium. In order to compare results with previous chelator-induced iron excretion data, the uranium clearance studies were carried out in a bile duct-cannulated rat model. The animals were given uranyl acetate dihydrate SC at a dose of 5 mg/kg (the actual dose of uranium is 2.8 mg/kg). Bile and urine samples were collected for 24 hours after dosing. Kidneys were removed from selected animals and tissue uranium concentration measured. At least three animals were utilized in each experimental group. Data from two separate control studies (uranyl acetate/ no chelator) are combined for a total of 14 control animals. All uranium concentrations were measured using ICPMS. The data are reported as the total quantity of uranium excreted [urine +bile]; the mode of excretion [urine/bile] is also given. In addition the percentage of the administered dose of uranium cleared and chelator-induced uranium excretion vs the controls is also given. Four positive controls were evaluated: DTPA (1, Table 1) given as its trisodium calcium salt, DFO (2), N,N -bis(2-hydroxybenzyl)ethylenediamine-N,N-diacetic acid, monosodium salt (NaHBED, 3) and the hydroxypyridone CP94 (4) shown to bind uranium. The total metal cleared after 24 h in control rats was 10% of the administered dose. When DTPA, 1, was given IP or PO at 300 μmol/kg immediately after uranium, the excretion was 17% and 8% of the administered dose respectively (p>0.05). However, when the drug was given IP at a dose of 600 μmol/kg immediately post metal, the uranium excretion was significant, 20% (p<0.005). This is consistent with previously published data using a similar animal model.^2 DFO (2) and CP94 (4) given IP immediately post uranyl acetate were ineffective.

[1] = Rattus norvegicus, ip, 24 h, 300 μmol/kg IP Immediate, read-out: Chelator-Induced U Excretion/Control

SMILES | % of Administered Dose Cleared (300 μmol/kg IP Immediate) [%] | Uranium Excretion (300 μmol/kg IP Immediate) [µg/kg] | Uranium Excretion [urine/bite] (300 μmol/kg IP Immediate) | response vs control in vivo at 300 µmol/kg [1] [%] | further results
O=C(O)CN(CCN(CC(=O)O)CC(=O)O)CCN(CC(=O)O)CC(=O)O [drawing 4] | 17 | 469 ± 271 | 99/1 | 170 | % of Administered Dose Cleared (300 μmol/kg PO Immediate): 6%; Uranium Excretion (300 μmol/kg PO Immediate): 235 ± 205 µg/kg; Uranium Excretion [urine/bite] (300 μmol/kg PO Immediate): [100/0]; % of Administered Dose Cleared (600 μmol/kg IP Immediate): 20%; Uranium Excretion (600 μmol/kg IP Immediate): 546 ± 147 µg/kg; Uranium Excretion [urine/bite] (600 μmol/kg IP Immediate): [100/0]; response vs control in vivo at 600 µmol/kg (Rattus norvegicus, ip, 24 h, 600 μmol/kg IP Immediate, read-out: Chelator-Induced U Excretion/Control): 200%; response vs control in vivo at 300 µmol/kg (Rattus norvegicus, po, 24 h, 300 μmol/kg PO Immediate, read-out: Chelator-Induced U Excretion/Control): 80%
COCCOCCOCCOc1ccc(C2=N[C@@](C)(C(=O)O)CS2)c(O)c1 [drawing 21] | – | 626 ± 123 | 35/65 | 220 | –
COc1ccc(C2=N[C@@](C)(C(=O)O)CS2)c(O)c1 [drawing 8] | – | 568 ± 133 | 59/41 | – | % of Administered Dose Cleared (300 μmol/kg IP 0.5 h Post): 15%; Chelator-Induced U Excretion/Control (300 μmol/kg IP 0.5 h Post): 1.5; Uranium Excretion (300 μmol/kg IP 0.5 h Post): 413 ± 148 µg/kg; Uranium Excretion [urine/bite] (300 μmol/kg IP 0.5 h Post): [37/63]; Chelator-Induced U Excretion/Control (300 μmol/kg IP Immediate): 2.0
O=C([O-])CN(CCN(CC(=O)O)Cc1ccccc1O)Cc1ccccc1O.[Na+] [NaHBED, N,N′-bis(2hydroxybenzyl)ethylenediamine-N,N′-diacetic acid, monosodium salt, reference compound] | – | – | – | – | uranium clearance, in words (given IP immediately post uranyl acetate, doses per Table 1): marginally improved clearance
C[C@@]1(C(=O)O)CSC(c2ccc(O)cc2O)=N1 [drawing 10] | 19 | 523 ± 180 | 92/8 | 190 | –
C[C@@]1(C(=O)O)CSC(c2ccc(O)cc2O)=N1 [drawing 13] | 19 | – | – | – | –
